# Values of other authors, collected in US20050271754A1, “Composition for prevention or treatment of an alcohol hangover” (priority 2004, published 2005).
# Tested on: acetaldehyde levels in the blood, liver and brain
# Details: increases the oxidation cycle of ethanol
structure (smiles),measurement,value
N[C@@H](CS)C(=O)O [L-cysteine],"acetaldehyde levels in the blood, liver and brain",lowering acetaldehyde levels
